Data reported in patent US6737383B1, “Herbicidal oxadiazolidines” (priority 1999, dated 2004).

Columns and labels:
bedstraw = experiment: Test B pre/postemergence bedstraw; type: in vivo, Galium aparine; conditions: Preemergence
Outline: (§1)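 Herbicidal effect was estimated by eye on a ten-point control scale after plants spent twelve to sixteen days in a greenhouse following soil or foliar treatment. Foliar sprays targeted plants at one to four leaves; all doses were formulated in a non-phytotoxic solvent with surfactant.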

wild oat = experiment: Test B pre/postemergence wild oat; type: in vivo, Avena fatua; conditions: for Plant response rating, Wild oats: scale of 0 to 10 where 0 is no effect and 10 is complete control
Outline: as §1

surinam grass = experiment: Test B pre/postemergence surinam grass; type: in vivo, Brachiaria decumbens; conditions: for Plant response rating, B. signalgrass: scale of 0 to 10 where 0 is no effect and 10 is complete control
Outline: as §1

wheat = experiment: Test B pre/postemergence wheat; type: in vivo, Triticum aestivum; conditions: for Plant response rating, Wheat: scale of 0 to 10 where 0 is no effect and 10 is complete control
Outline: as §1

pigweed = experiment: Test B pre/postemergence pigweed; type: in vivo, Amaranthus retroflexus; conditions: for Plant response rating, Redroot pigweed: scale of 0 to 10 where 0 is no effect and 10 is complete control
Outline: as §1

cocklebur = experiment: Test B pre/postemergence cocklebur; type: in vivo, Xanthium strumarium; conditions: for Plant response rating, Cocklebur: scale of 0 to 10 where 0 is no effect and 10 is complete control
Outline: as §1

morningglory = experiment: Test B pre/postemergence morningglory; type: in vivo, Ipomoea hederacea; conditions: for Plant response rating, Morningglory: scale of 0 to 10 where 0 is no effect and 10 is complete control
Outline: as §1

purple nutsedge = experiment: Test B pre/postemergence purple nutsedge; type: in vivo, Cyperus rotundus
Outline: as §1

rape = experiment: Test B pre/postemergence rape; type: in vivo, Brassica napus; conditions: for Plant response rating, Rape: scale of 0 to 10 where 0 is no effect and 10 is complete control
Outline: as §1

sugar beet = experiment: Test B pre/postemergence sugar beet; type: in vivo, Beta vulgaris; conditions: for Plant response rating, Sugarbeets: scale of 0 to 10 where 0 is no effect and 10 is complete control
Outline: as §1

blackgrass = experiment: Test B pre/postemergence blackgrass; type: in vivo, Alopecurus myosuroides; conditions: for Plant response rating, Blackgrass: scale of 0 to 10 where 0 is no effect and 10 is complete control
Outline: as §1

crabgrass = experiment: Test B pre/postemergence crabgrass; type: in vivo, Digitaria sanguinalis; conditions: for Plant response rating, Crabgrass: scale of 0 to 10 where 0 is no effect and 10 is complete control
Outline: as §1

soybean = experiment: Test B pre/postemergence soybean; type: in vivo, Glycine max; conditions: for Plant response rating, Soybean: scale of 0 to 10 where 0 is no effect and 10 is complete control
Outline: as §1

giant foxtail = experiment: Test B pre/postemergence giant foxtail; type: in vivo, Setaria faberii; conditions: for Plant response rating, Giant foxtail: scale of 0 to 10 where 0 is no effect and 10 is complete control
Outline: as §1

velvetleaf = experiment: Test B pre/postemergence velvetleaf; type: in vivo, Abutilon theophrasti; conditions: for Velvetleaf plant response rating: Rate 125 g/ha, scale 0 to 10, 0 is no effect, 10 is complete control; for Plant response rating, Velvetleaf: scale of 0 to 10 where 0 is no effect and 10 is complete control
Outline: as §1

corn = experiment: Test B pre/postemergence corn; type: in vivo, Zea mays; conditions: for Plant response rating, Corn: scale of 0 to 10 where 0 is no effect and 10 is complete control
Outline: as §1

[1] = Postemergence, Rate 31 g/ha, visual rating, scale 0 to 10 (0 no effect, 10 complete control)
[2] = Postemergence, Rate 62 g/ha, scale of 0 to 10, 0 is no effect, 10 is complete control
[3] = Postemergence, Rate 125 g/ha, scale 0 to 10, 0 is no effect, 10 is complete control
[4] = Preemergence, Rate 125 g/ha, scale 0 to 10, 0 is no effect, 10 is complete control
[5] = Preemergence, Rate 31 g/ha, visual rating, scale 0 to 10 (0 no effect, 10 complete control)

CC(C)N(C(=O)n1oc(=O)n(C[Si](C)(C)C)c1=O)c1ccc(F)cc1F [Compound 518]
Bedstraw plant response rating (bedstraw; Rate 31 g/ha, visual rating, scale 0 to 10 (0 no effect, 10 complete control)): 0
Plant response rating, Bedstraw (bedstraw; Rate 62 g/ha, scale of 0 to 10 where 0 is no effect and 10 is complete control): 0
Bedstraw plant response rating (bedstraw; Rate 125 g/ha, scale 0 to 10, 0 is no effect, 10 is complete control): 0
Bedstraw plant response rating (0 to 10 scale) (bedstraw; Rate 250 g/ha): 0
Wild oats plant response rating (wild oat; [1]): 0
Wild oats plant response rating (wild oat; [2]): 0
Wild oats plant response rating (wild oat; [3]): 2
Plant response rating, Wild oats (wild oat; Preemergence, Rate 62 g/ha): 4
Wild oats plant response rating (wild oat; [4]): 6
Wild oats plant response rating (0 to 10 scale) (wild oat; Preemergence, Rate 250 g/ha): 8
Plant response rating, Wild oats (wild oat; Rate 250 g/ha, Postemergence): 2
B. signalgrass plant response rating (surinam grass; [1]): 3
B. signalgrass plant response rating (surinam grass; [3]): 7
B. signalgrass plant response rating (surinam grass; [5]): 0
Plant response rating, B. signalgrass (surinam grass; Preemergence, Rate 62 g/ha): 0
B. signalgrass plant response rating (surinam grass; [4]): 3
B. signalgrass plant response rating (0 to 10 scale, 0 is no effect, 10 is complete control) (surinam grass; Preemergence, Rate 250 g/ha): 10
Plant response rating, B. signalgrass (surinam grass; Rate 250 g/ha, Postemergence): 7
Wheat plant response rating (wheat; [1]): 0
Wheat plant response rating (wheat; [2]): 0
Wheat plant response rating (wheat; [3]): 0
Plant response rating, Wheat (wheat; Preemergence, Rate 62 g/ha): 0
Wheat plant response rating (wheat; [4]): 2
Wheat plant response rating (0 to 10 scale) (wheat; Preemergence, Rate 250 g/ha): 3
Plant response rating, Wheat (wheat; Rate 250 g/ha, Postemergence): 0
Redroot pigweed plant response rating (pigweed; [1]): 0
Redroot pigweed plant response rating (pigweed; [2]): 0
Redroot pigweed plant response rating (pigweed; [3]): 0
Plant response rating, Redroot pigweed (pigweed; Preemergence, Rate 62 g/ha): 2
Redroot pigweed plant response rating (pigweed; [4]): 2
Redroot pigweed plant response rating (0 to 10 scale) (pigweed; Preemergence, Rate 250 g/ha): 4
Plant response rating, Redroot pigweed (pigweed; Rate 250 g/ha, Postemergence): 0
Cocklebur plant response rating (cocklebur; [1]): 0
Cocklebur plant response rating (cocklebur; [2]): 0
Cocklebur plant response rating (cocklebur; [3]): 0
Cocklebur plant response rating (cocklebur; [5]): 0
Plant response rating, Cocklebur (cocklebur; Preemergence, Rate 62 g/ha): 0
Cocklebur plant response rating (cocklebur; [4]): 0
Cocklebur plant response rating (0 to 10 scale) (cocklebur; Preemergence, Rate 250 g/ha): 0
Plant response rating, Cocklebur (cocklebur; Rate 250 g/ha, Postemergence): 0
Morningglory plant response rating (morningglory; [1]): 5
Morningglory plant response rating (morningglory; [2]): 5
Morningglory plant response rating (morningglory; [3]): 5
Plant response rating, Morningglory (morningglory; Preemergence, Rate 62 g/ha): 0
Morningglory plant response rating (morningglory; [4]): 0
Morningglory plant response rating (0 to 10 scale) (morningglory; Preemergence, Rate 250 g/ha): 0
Plant response rating, Morningglory (morningglory; Rate 250 g/ha, Postemergence): 8
Nutsedge plant response rating (purple nutsedge; [1]): 0
Nutsedge plant response rating (purple nutsedge; [2]): 0
Nutsedge plant response rating (purple nutsedge; [3]): 0
Plant response rating, Nutsedge (purple nutsedge; Preemergence, Rate 62 g/ha, scale of 0 to 10 where 0 is no effect and 10 is complete control): 0
Nutsedge plant response rating (purple nutsedge; [4]): 0
Nutsedge plant response rating (0 to 10 scale) (purple nutsedge; Preemergence, Rate 250 g/ha): 0
Rape plant response rating (rape; [1]): 0
Rape plant response rating (rape; [2]): 0
Rape plant response rating (rape; [3]): 7
Plant response rating, Rape (rape; Preemergence, Rate 62 g/ha): 0
Rape plant response rating (rape; [4]): 0
Rape plant response rating (0 to 10 scale) (rape; Preemergence, Rate 250 g/ha): 0
Plant response rating, Rape (rape; Rate 250 g/ha, Postemergence): 7
Sugarbeets plant response rating (sugar beet; [1]): 0
Sugarbeets plant response rating (sugar beet; [2]): 0
Sugarbeets plant response rating (sugar beet; [3]): 3
Plant response rating, Sugarbeets (sugar beet; Preemergence, Rate 62 g/ha): 0
Sugarbeets plant response rating (sugar beet; [4]): 2
Sugarbeets plant response rating (0 to 10 scale) (sugar beet; Preemergence, Rate 250 g/ha): 2
Plant response rating, Sugarbeets (sugar beet; Rate 250 g/ha, Postemergence): 3
Blackgrass plant response rating (blackgrass; [1]): 4
Blackgrass plant response rating (blackgrass; [2]): 4
Blackgrass plant response rating (blackgrass; [3]): 7
Blackgrass plant response rating (blackgrass; [5]): 4
Plant response rating, Blackgrass (blackgrass; Preemergence, Rate 62 g/ha): 7
Blackgrass plant response rating (blackgrass; [4]): 8
Blackgrass plant response rating (0 to 10 scale) (blackgrass; Preemergence, Rate 250 g/ha): 7
Plant response rating, Blackgrass (blackgrass; Rate 250 g/ha, Postemergence): 7
Crabgrass plant response rating (crabgrass; [1]): 0
Crabgrass plant response rating (crabgrass; [2]): 0
Crabgrass plant response rating (crabgrass; [3]): 2
Crabgrass plant response rating (crabgrass; [5]): 0
Plant response rating, Crabgrass (crabgrass; Preemergence, Rate 62 g/ha): 0
Crabgrass plant response rating (crabgrass; [4]): 0
Crabgrass plant response rating (0 to 10 scale) (crabgrass; Preemergence, Rate 250 g/ha): 0
Plant response rating, Crabgrass (crabgrass; Rate 250 g/ha, Postemergence): 10
Soybean plant response rating (soybean; [1]): 4
Soybean plant response rating (soybean; [2]): 4
Soybean plant response rating (soybean; [3]): 5
Plant response rating, Soybean (soybean; Preemergence, Rate 62 g/ha): 0
Soybean plant response rating (soybean; [4]): 0
Soybean plant response rating (0 to 10 scale) (soybean; Preemergence, Rate 250 g/ha): 0
Plant response rating, Soybean (soybean; Rate 250 g/ha, Postemergence): 5
Giant foxtail plant response rating (giant foxtail; [1]): 0
Giant foxtail plant response rating (giant foxtail; [2]): 0
Giant foxtail plant response rating (giant foxtail; [3]): 0
Giant foxtail plant response rating (giant foxtail; [5]): 0
Plant response rating, Giant foxtail (giant foxtail; Preemergence, Rate 62 g/ha): 0
Giant foxtail plant response rating (giant foxtail; [4]): 0
Giant foxtail plant response rating (0 to 10 scale) (giant foxtail; Preemergence, Rate 250 g/ha): 0
Plant response rating, Giant foxtail (giant foxtail; Rate 250 g/ha, Postemergence): 2
Velvetleaf plant response rating (velvetleaf; Postemergence): 2
Plant response rating, Velvetleaf (velvetleaf; Preemergence, Rate 62 g/ha): 0
Velvetleaf plant response rating (velvetleaf; Preemergence): 0
Velvetleaf plant response rating (0 to 10 scale) (velvetleaf; Preemergence, Rate 250 g/ha): 0
Plant response rating, Velvetleaf (velvetleaf; Rate 250 g/ha, Postemergence): 4
Corn plant response rating (corn; [1]): 0
Corn plant response rating (corn; [2]): 0
Corn plant response rating (corn; [3]): 0
Corn plant response rating (corn; [5]): 0
Plant response rating, Corn (corn; Preemergence, Rate 62 g/ha): 0
Corn plant response rating (corn; [4]): 0
Corn plant response rating (0 to 10 scale) (corn; Preemergence, Rate 250 g/ha): 0
Plant response rating, Corn (corn; Rate 250 g/ha, Postemergence): 0
